In patent publication US20220127281A1, “HETEROARYL COMPOUNDS THAT INHIBIT G12C MUTANT RAS PROTEINS” (AstraZeneca AB, priority 2017, published 2022):
Where two headings read alike, the source gives them in different places.

Key:
[1] = target: T1, GDP loaded biotinylated KRas^G12C protein (Homo sapiens, UniProt P01116, G12C); test: KRasG12C mass spectrometry adducting assay; assay type: binding; conditions: test compound final concentration 10 μM, 4 μM KRasG12C, react for 4 hours
T1 construct: biotin (biotinylated); made in house
T1 sequence (P01116 1-188 isoform P01116-2 G12C): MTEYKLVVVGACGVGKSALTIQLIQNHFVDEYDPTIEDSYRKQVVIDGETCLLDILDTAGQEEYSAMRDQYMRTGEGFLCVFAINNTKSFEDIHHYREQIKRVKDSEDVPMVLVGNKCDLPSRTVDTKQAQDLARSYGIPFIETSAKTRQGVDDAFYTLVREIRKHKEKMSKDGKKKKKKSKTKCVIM
Method: KRasG12C Mass Spectrometry Adducting Assay
Enzyme solutions were prepared in assay buffer containing 20 mM HEPES (pH 7.5), 5 mM MgCl2, and 150 mM NaCl. […] The plate was sealed before reading on a Xevo G2 QTOF (Waters) and Acquity LC system (Waters). […] Blank samples were run in between each test sample.
Data was analysed in Mass Lynx software (Waters), the Total ion count (TIC) trace was used and the eluted protein peak data combined. Using the combined spectrum the data was deconvoluted using MaxEnt1 method. The peak area for apo-protein KRas^G12C (APO) and KRAS+relative cmpd mass (adduct) were measured, and a percentage adduct was calculated using the following calculation:
Percent adduct=100*(area of adduct peak/(sum of APO+adduct peaks)

[2] = target: T1, GDP loaded biotinylated KRas^G12C protein; test: KRasG12C functional assay; assay type: biochemical; conditions: HTRF FRET readout of SOS-mediated nucleotide exchange and GST-Raf RBD binding, samples incubated for 4 hrs
Method: KRasG12C Functional Assay
All enzyme and substrate solutions were prepared in assay buffer containing 20 mM HEPES (pH 7.5), 5 mM MgCl2, 150 mM NaCl, and 0.01% Tween 20. […] In a separate mix 20 nM GST-Raf Ras binding domain (GST-Raf RBD, purified in house) and 4 μg/ml anti-GST XL665 antibody (Cisbio) was prepared in assay buffer containing 50 mM Potassium Fluoride and 0.05 mg/ml BSA and equilibrated for 4 hours before adding 0.6 μM Guanosine 5′-[γ-thio]triphosphate (GTPγS, Sigma) and 0.08 μM SOS (purified in house). 5 μl of the GST-RAF RBD mix was then dispensed into each well of the assay plate. […] This is detected simultaneously via the specific binding interaction between active GTPγS KRas^G12C with GST-Raf RBD which brings the europium and XL665 into close proximity enabling an increased FRET signal to be detected on a Pherastar (BMG) plate reader equipped with the HTRF filter module. […] IC50 values were calculated from normalised dose-response response FRET data curve fitted in Genedata screener (Basel, Switzerland).

[3] = KRasG12C functional assay IC50 value (μM)
[4] = read-out: KRasG12C functional assay IC50 value

SMILES	KRasG12C M.S. Binding Mean adduct % [1] [%]	IC50 [2, 3] [µM]	IC50 [2, 4] [µM]
C=CC(=O)N1CCN2c3ncnc4cc(-c5c(C)ccc6[nH]ncc56)c(Cl)c(c34)OC[C@@H]2C1 (single isomer, unassigned) [Example 2]	2	38.9	
C=CC(=O)N1CCN2c3ncnc4cc(-c5c(O)cccc5C#N)c(Cl)c(c34)OC[C@@H]2C1 (single isomer, unassigned) [Example 19]	0		41.8
C=CC(=O)N1CCN2c3ncnc4cc(-c5cnccc5C)c(Cl)c(c34)OC[C@@H]2C1 [Example 55, 1-[(8aS)-6-Chloro-5-(4-methylpyridin-3-yl)-8a,9,11,12-tetrahydropyrazino[2′,1′:3,4][1,4]oxazepino[5,6,7-de]quinazolin-10(8H)-yl]prop-2-en-1-one]	26		4.03
C=CC(=O)N1CCN2c3ncnc4cc(-c5cc(F)ccc5OC)c(Cl)c(c34)OC[C@@H]2C1 [Example 51, 1-[(8aS)-6-Chloro-5-(5-fluoro-2-methoxyphenyl)-8a,9,11,12-tetrahydropyrazino[2′,1′:3,4][1,4]oxazepino[5,6,7-de]quinazolin-10(8H)-yl]prop-2-en-1-one]	57		5.09
C=CC(=O)N1CCN2c3ncnc4cc(-c5ccccc5CC(N)=O)c(Cl)c(c34)OC[C@@H]2C1 [Example 49, 2-{2-[(8aS)-10-Acryloyl-6-chloro-8,8a,9,10,11,12-hexahydropyrazino[2′,1′:3,4][1,4]oxazepino[5,6,7-de]quinazolin-5-yl]phenyl}acetamide]	28		7.53
C=CC(=O)N1CCN2c3ncnc4cc(-c5cccc6nccnc56)c(Cl)c(c34)OC[C@@H]2C1 [Example 32, 1-[(8aS)-6-Chloro-5-(quinoxalin-5-yl)-8a,9,11,12-tetrahydropyrazino[2′,1′:3,4][1,4]oxazepino[5,6,7-de]quinazolin-10(8H)-yl]prop-2-en-1-one]	33		8.32
C=CC(=O)N1CCN2c3nc(NC4CCN(C5CC5)CC4)nc4cc(-c5c(C)ccc6[nH]ncc56)c(Cl)c(c34)OC[C@@H]2C1 (single isomer, unassigned) [Example 74]	94		0.012
C=CC(=O)N1CCN2c3ncnc4cc(-c5ccc(F)cc5C)c(Cl)c(c34)OC[C@@H]2C1 [Example 64, 1-[(8aS)-6-Chloro-5-(4-fluoro-2-methylphenyl)-8a,9,11,12-tetrahydropyrazino[2′,1′:3,4][1,4]oxazepino[5,6,7-de]quinazolin-10(8H)-yl]prop-2-en-1-one]	75		1.57
C=CC(=O)N1CCN2c3ncnc4cc(-c5ccc6oc(N)nc6c5)c(Cl)c(c34)OC[C@@H]2C1 [Example 21, 1-[(8aS)-5-(2-Amino-1,3-benzoxazol-5-yl)-6-chloro-8a,9,11,12-tetrahydropyrazino[2′,1′:3,4][1,4]-oxazepino[5,6,7-de]quinazolin-10(8H)-yl]prop-2-en-1-one]	20		7.18
C=CC(=O)N1CCN2c3ncnc4cc(-c5cccc(NC(C)=O)c5)c(Cl)c(c34)OC[C@@H]2C1 [Example 23, N-{3-[(8aS)-10-Acryloyl-6-chloro-8,8a,9,10,11,12-hexahydropyrazino[2′,1′:3,4][1,4]oxazepino[5,6,7-de]quinazolin-5-yl]phenyl}acetamide]	20		8.84
C=CC(=O)N1CCN2c3ncnc4cc(-c5ccccc5CO)c(Cl)c(c34)OC[C@@H]2C1 [Example 65, 1-[(8aS)-6-Chloro-5-[2-(hydroxymethyl)phenyl]-8a,9,11,12-tetrahydropyrazino[2′,1′:3,4][1,4]oxazepino[5,6,7-de]quinazolin-10(8H)-yl]prop-2-en-1-one]	49		3.46
C=CC(=O)N1CCN2c3ncnc4cc(-c5cccc(N=S(C)(C)=O)c5)c(Cl)c(c34)OC[C@@H]2C1 [Example 36, 1-[(8aS)-6-Chloro-5-(3-{[dimethyl(oxido)-lambda~6~- sulfanylidene]amino}phenyl)-8a,9,11,12-tetrahydropyrazino[2′,1′:3,4][1,4]oxazepino[5,6,7-de]quinazolin-10(8H)-yl]prop-2-en-1-one]	21		6.38
C=CC(=O)N1CCN2c3nc(N4CC(N(C)C)C4)nc4cc(-c5c(C)ccc6[nH]ncc56)c(Cl)c(c34)OC[C@@H]2C1 [Example 75, 1-((8aS)-6-chloro-2-(3-(dimethylamino)azetidin-1-yl)-5-(5-methyl-1H-indazol-4-yl)-8a,9,11,12-tetrahydropyrazino[2′,1′:3,4][1,4]oxazepino[5,6,7-de]quinazolin-10 (8H)-yl)prop-2-en-1-one]	57		0.019
C=CC(=O)N1CCN2c3ncnc4cc(-c5ccc(N)cc5C)c(Cl)c(c34)OC[C@@H]2C1 [Example 54, 1-[(8aS)-5-(4-Amino-2-methylphenyl)-6-chloro-8a,9,11,12-tetrahydropyrazino[2′,1′:3,4][1,4]oxazepino[5,6,7-de]quinazolin-10(8H)-yl]prop-2-en-1-one]	60		2.57
C=CC(=O)N1CCN2c3nc(N4CC(N(C)C)C4)nc4cc(-c5c(C)ccc6[nH]ncc56)c(Cl)c(c34)OC[C@@H]2C1 (single isomer, unassigned) [Example 77]	100		0.021
C=CC(=O)N1CCN2c3ncnc4cc(-c5ccc(F)cc5Cl)c(Cl)c(c34)OC[C@@H]2C1 [Example 50, 1-[(8aS)-6-Chloro-5-(2-chloro-4-fluorophenyl)-8a,9,11,12-tetrahydropyrazino[2′,1′:3,4][1,4]oxazepino[5,6,7-de]quinazolin-10(8H)-yl]prop-2-en-1-one]	100		0.956
C=CC(=O)N1CCN2c3ncnc4cc(-c5c(C)ccc6[nH]ncc56)c(Cl)c(c34)OC[C@@H]2C1 (single isomer, unassigned) [Example 3]	96	0.082	
CN(C)C/C=C/C(=O)N1CCN2c3ncnc4cc(-c5c(O)cccc5F)c(Cl)c(c34)OC[C@@H]2C1 [Example 12, (E)-1-((8aS)-6-Chloro-5-(2-fluoro-6-hydroxyphenyl)-8a,9,11,12-tetrahydropyrazino[2′,1′:3,4][1,4]oxazepino[5,6,7-de]quinazolin-10 (8H)-yl)-4-(dimethylamino)but-2-en-1-one]	76		0.381
C=CC(=O)N1CCN2c3ncnc4c(Cl)c(-c5c(C)ccc6[nH]ncc56)cc(c34)OC[C@@H]2C1 [Example 8, 1-[(8aS)-4-Chloro-5-(5-methyl-1H-indazol-4-yl)-8a,9,11,12-tetrahydropyrazino-[2′,1′:3,4][1,4]oxazepino[5,6,7-de]quinazolin-10 (8H)-yl]prop-2-en-1-one]	81		0.324
C=CC(=O)N1CCN2c3ncnc4cc(-c5cccc6c5OCCOC6)c(Cl)c(c34)OC[C@@H]2C1 [Example 24, 1-[(8aS)-6-Chloro-5-(2,3-dihydro-5H-1,4-benzodioxepin-9-yl)-8a,9,11,12-tetrahydropyrazino[2′,1′:3,4][1,4]oxazepino[5,6,7-de]quinazolin-10(8H)-yl]prop-2-en-1-one]	27		4.41
C=CC(=O)N1CCN2c3ncnc4cc(-c5ccccc5F)c(Cl)c(c34)OC[C@@H]2C1 [Example 60, 1-[(8aS)-6-Chloro-5-(2-fluorophenyl)-8a,9,11,12-tetrahydropyrazino[2′,1′:3,4][1,4]oxazepino[5,6,7-de]quinazolin-10(8H)-yl]prop-2-en-1-one]	100		0.437
C=CC(=O)N1CCN2c3ncnc4cc(-c5c(O)cccc5C#N)c(Cl)c(c34)OC[C@@H]2C1 (single isomer, unassigned) [Example 20]	100		0.191
C=CC(=O)N1CCN2c3nc(NCCN(C)C)nc4cc(-c5c(C)ccc6[nH]ncc56)c(Cl)c(c34)OC[C@@H]2C1 (single isomer, unassigned) [Example 80]	90		0.018
C=CC(=O)N1CCN2c3ncnc4cc(-c5cc(CO)ccc5F)c(Cl)c(c34)OC[C@@H]2C1 [Example 38, 1-[(8aS)-6-Chloro-5-[2-fluoro-5-(hydroxymethyl)phenyl]-8a,9,11,12-tetrahydropyrazino[2′,1′:3,4][1,4]oxazepino[5,6,7-de]quinazolin-10(8H)-yl]prop-2-en-1-one]	82		1.28
